≈ marks a conversion by molar mass, not a printed value. Numbered stars: 1 amine (or outer) side, 2 acyl side, 3 side chain; on linkers, the order of the positions; unused ones are H or OH. Square brackets hold non-standard residues; d marks the D form. Peptide text beside a SMILES is read from it. ξ: configuration not given here. X3 = CC1(C)OCC2OC(N3C(=N)NCC3C(O)C(N[*:1])C(=O)[*:2])C3OC(C)(C)OC3C2O1; ξEnduracididine(βξ-OH,4'ξ) = N=C1NCC(C(O)C(N)C(=O)O)N1; ξPhe(βξ-Me) = CC(c1ccccc1)C(N)C(=O)O
Tests used:
Assay in all cases: in vitro antibacterial evaluation, MIC by broth dilution
Assay type in all cases: cell-based
[1] = test system: Staphylococcus sp.; conditions: broth dilution, 18 hours at 35° C.
Outline: (§1)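 Broth dilution per NCCLS M7-A2 in Mueller-Hinton II medium, inoculum 5×10^5 CFU/mL, antibiotic range 64-0.06 μg/mL. MIC taken as lowest concentration inhibiting growth; Gram-positive panel includes recent clinical isolates resistant to methicillin, penicillin and/or vancomycin.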

[2] = test system: Streptococcus sp.; conditions: broth dilution, 18 hours at 35° C.
Outline: as §1

[3] = test system: Enterococcus sp.; conditions: broth dilution, 18 hours at 35° C.
Outline: as §1

[4] = test system: Escherichia coli; conditions: 18 hours at 35° C.

In the case of `CCCCCNC(=O)OC1C(CO)OC(OC2C(CO)OC(Oc3ccc(CC4NC(=O)C(C(C)c5ccccc5)NC(=O)CNC(=O)C(CO)NC(=O)C(C(O)C5CNC(=N)N5C5OC(CO)C(O)C(O)C5O)NC(=O)C(C(O)C5CNC(=N)N5)NC4=O)cc3)C(O)C2O)C(O)C1O` (stereo not shown) [Example 251], the “MIC Coagulase Negative Staphylococcus (GC 4547)” value [1] was >64 µg/mL, the “MIC Coagulase Negative Staphylococcus (GC 4548)” value [1] was >64 µg/mL and the “MIC Coagulase Negative Staphylococcus (GC 4549)” value [1] was >64 µg/mL. For the same molecule, the “MIC Coagulase Negative Staphylococcus (GC 4551)” value [1] was >64 µg/mL, the “MIC Coagulase Negative Staphylococcus (ID-3941)” value [1] was 64 µg/mL (≈ 45.4 µM) and the “MIC Staphylococcus aureus (ATCC 29213)” value [1] was >64 µg/mL. The “MIC Staphylococcus aureus (GC 1131)” value [1] was >64 µg/mL, the “MIC Staphylococcus aureus (GC 4541)” value [1] was >64 µg/mL and the “MIC Staphylococcus aureus (GC 4542)” value [1] was >64 µg/mL. The “MIC Staphylococcus aureus (GC 4544)” value [1] was >64 µg/mL, the “MIC Staphylococcus aureus (GC 4545)” value [1] was >64 µg/mL and the “MIC Staphylococcus aureus-SMITH (GC 4543)” value [1] was >64 µg/mL. The “MIC Staphylococcus haemolyticus (GC 4546)” value [1] was >64 µg/mL, the “MIC Staphylococcus aureus (ATCC 29213)” value ([1]; strain ATCC 29213) was >64 µg/mL and the “MIC Staphylococcus aureus (GC 1131)” value ([1]; strain GC 1131) was >64 µg/mL. For the same molecule, the “MIC Staphylococcus aureus (GC 4541)” value ([1]; strain GC 4541) was >64 µg/mL, the “MIC Staphylococcus aureus (GC 4542)” value ([1]; strain GC 4542) was >64 µg/mL and the “MIC Staphylococcus aureus-SMITH (GC 4543)” value ([1]; strain GC 4543) was >64 µg/mL. For the same molecule, the “MIC Staphylococcus aureus (GC 4544)” value ([1]; strain GC 4544) was >64 µg/mL, the “MIC Staphylococcus aureus (GC 4545)” value ([1]; strain GC 4545) was >64 µg/mL and the “MIC Staphylococcus haemolyticus (GC 4546)” value ([1]; strain GC 4546) was >64 µg/mL. For the same molecule, the “MIC Coagulase Negative Staphylococcus (GC 4547)” value ([1]; strain GC 4547) was >64 µg/mL, the “MIC Coagulase Negative Staphylococcus (GC 4548)” value ([1]; strain GC 4548) was >64 µg/mL and the “MIC Coagulase Negative Staphylococcus (GC 4549)” value ([1]; strain GC 4549) was >64 µg/mL. The “MIC Coagulase Negative Staphylococcus (GC 4551)” value ([1]; strain GC 4551) was >64 µg/mL, the “MIC Coagulase Negative Staphylococcus (ID-3941)” value ([1]; strain ID-3941) was 64 µg/mL (≈ 45.4 µM) and the “MIC Streptococcus agalactiae (GC 4564)” value [2] was >64 µg/mL. For the same molecule, the “MIC Streptococcus pneumoniae (GC 4565)” value [2] was 64 µg/mL (≈ 45.4 µM), the “MIC Streptococcus pyogenes (ID-3187)” value [2] was 64 µg/mL (≈ 45.4 µM) and the “MIC Streptococcus agalactiae (GC 4564)” value ([2]; strain GC 4564) was >64 µg/mL. For the same molecule, the “MIC Streptococcus pneumoniae (GC 4565)” value ([2]; strain GC 4565) was 64 µg/mL (≈ 45.4 µM), the “MIC Streptococcus pyogenes (ID-3187)” value ([2]; strain ID-3187) was 64 µg/mL (≈ 45.4 µM) and the “MIC Enterococcus avium (GC 4558)” value [3] was >64 µg/mL. The “MIC Enterococcus faecalis (ATCC 29212)” value [3] was >64 µg/mL, the “MIC Enterococcus faecalis (GC 2242)” value [3] was >64 µg/mL and the “MIC Enterococcus faecalis (GC 4552)” value [3] was >64 µg/mL. For the same molecule, the “MIC Enterococcus faecalis (GC 4553)” value [3] was >64 µg/mL, the “MIC Enterococcus faecalis (GC 4554)” value [3] was >64 µg/mL and the “MIC Enterococcus faecium (GC 2243)” value [3] was >64 µg/mL. The “MIC Enterococcus faecium (GC 4556)” value [3] was >64 µg/mL, the “MIC Enterococcus faecium (GC 4557)” value [3] was 64 µg/mL (≈ 45.4 µM) and the “MIC Enterococcus faecalis (ATCC 29212)” value ([3]; strain ATCC 29212) was >64 µg/mL. The “MIC Enterococcus faecalis (GC 2242)” value ([3]; strain GC 2242) was >64 µg/mL, the “MIC Enterococcus faecium (GC 2243)” value ([3]; strain GC 2243) was >64 µg/mL and the “MIC Enterococcus faecalis (GC 4552)” value ([3]; strain GC 4552) was >64 µg/mL. The “MIC Enterococcus faecalis (GC 4553)” value ([3]; strain GC 4553) was >64 µg/mL, the “MIC Enterococcus faecalis (GC 4554)” value ([3]; strain GC 4554) was >64 µg/mL and the “MIC Enterococcus faecium (GC 4556)” value ([3]; strain GC 4556) was >64 µg/mL. For the same molecule, the “MIC Enterococcus faecium (GC 4557)” value ([3]; strain GC 4557) was 64 µg/mL (≈ 45.4 µM), the “MIC Enterococcus avium (GC 4558)” value ([3]; strain GC 4558) was >64 µg/mL and the “MIC Escherichia coli (ATCC 25922)” value [4] was >64 µg/mL. The “MIC Escherichia coli (GC 4559)” value [4] was >64 µg/mL and the “MIC Escherichia coli (GC 4560)” value [4] was 4 µg/mL (≈ 2.84 µM).

For `CC(c1ccccc1)C1NC(=O)CNC(=O)C(CO)NC(=O)C(C(O)C2CNC(=N)N2C2OC3COC(C)(C)OC3C3OC(C)(C)OC32)NC(=O)C(C(O)C2CNC(=N)N2)NC(=O)C(Cc2ccc(O)cc2)NC1=O` (stereo not drawn) [Example 247] (cyclo(G[ξPhe(βξ-Me)]Y[ξEnduracididine(βξ-OH,4'ξ)][X3]S); configuration not given here), the “MIC Coagulase Negative Staphylococcus (GC 4547)” value [1] was >64 µg/mL, the “MIC Coagulase Negative Staphylococcus (GC 4548)” value [1] was >64 µg/mL and the “MIC Coagulase Negative Staphylococcus (GC 4549)” value [1] was >64 µg/mL. The “MIC Coagulase Negative Staphylococcus (GC 4551)” value [1] was >64 µg/mL, the “MIC Coagulase Negative Staphylococcus (GC 6257)” value [1] was >64 µg/mL and the “MIC Staphylococcus aureus (ATCC 29213)” value [1] was >64 µg/mL. The “MIC Staphylococcus aureus (GC 1131)” value [1] was >64 µg/mL, the “MIC Staphylococcus aureus (GC 3051)” value [1] was >64 µg/mL and the “MIC Staphylococcus aureus (GC 3053)” value [1] was >64 µg/mL. The “MIC Staphylococcus aureus (GC 4541)” value [1] was >64 µg/mL, the “MIC Staphylococcus aureus (GC 4542)” value [1] was >64 µg/mL and the “MIC Staphylococcus aureus (GC 4544)” value [1] was >64 µg/mL. For the same molecule, the “MIC Staphylococcus aureus (GC 4545)” value [1] was >64 µg/mL, the “MIC Staphylococcus aureus-SMITH (GC 4543)” value [1] was >64 µg/mL and the “MIC Staphylococcus haemolyticus (GC 4546)” value [1] was >64 µg/mL. For the same molecule, the “MIC Streptococcus agalactiae (GC 4564)” value [2] was >64 µg/mL, the “MIC Streptococcus pneumoniae (ATCC 6301)” value [2] was >64 µg/mL and the “MIC Streptococcus pneumoniae (GC 1894)” value [2] was >64 µg/mL. For the same molecule, the “MIC Streptococcus pneumoniae (GC 4565)” value [2] was >64 µg/mL, the “MIC Streptococcus pyogenes (GC 4563)” value [2] was >64 µg/mL and the “MIC Enterococcus avium (GC 4558)” value [3] was >64 µg/mL. The “MIC Enterococcus faecalis (ATCC 29212)” value [3] was >64 µg/mL, the “MIC Enterococcus faecalis (GC 2242)” value [3] was >64 µg/mL and the “MIC Enterococcus faecalis (GC 2691)” value [3] was >64 µg/mL. For the same molecule, the “MIC Enterococcus faecalis (GC 3059)” value [3] was >64 µg/mL, the “MIC Enterococcus faecalis (GC 4552)” value [3] was >64 µg/mL and the “MIC Enterococcus faecalis (GC 4553)” value [3] was >64 µg/mL. For the same molecule, the “MIC Enterococcus faecalis (GC 4554)” value [3] was >64 µg/mL, the “MIC Enterococcus faecalis (GC 6189)” value [3] was >64 µg/mL and the “MIC Enterococcus faecium (GC 2243)” value [3] was >64 µg/mL. The “MIC Enterococcus faecium (GC 4556)” value [3] was >64 µg/mL, the “MIC Enterococcus faecium (GC 4557)” value [3] was >64 µg/mL and the “MIC Escherichia coli (ATCC 25922)” value [4] was >64 µg/mL. For the same molecule, the “MIC Escherichia coli (GC 4559)” value [4] was >64 µg/mL and the “MIC Escherichia coli (GC 4560)” value [4] was >64 µg/mL.

Reference: patent US6914045B2, “Glycopeptide antibiotics” (Wyeth Holdings Corporation, priority 2001, dated 2005)
